{"source": "patent US11047012B2", "about": "“Method for detecting the risk and prognosis of adult-onset Still's disease” (Taichung Veterans General Hospital, priority 2018, dated 2021)", "key": {"[1]": {"test_system": "peripheral blood mononuclear cells derived from the patients with AOSD", "assay": "TLR ligand stimulation of peripheral blood mononuclear cells, intracellular miR-134 by QRT-PCR", "format": "cell-based, human", "description": "(§1) The miRNA expressions in a sample were detected using the TaqMan MicroRNA detection kit (Applied Biosystems, Thermo Fisher Scientific, USA) and QRT-PCR was performed in the StepOne Plus real-time PCR system. Small nuclear RNA (hereinafter referred to as RUN6) and synthetic cel-miR-39 (hereinafter referred to as cel-miR-39 cel-miR-39) were respectively used as an internal control gene in cells and plasma. The multiple expression of the target gene was obtained by calculating the average expression of the target gene relative to the internal control gene in the sample by comparative threshold cycle (Ct) method, and evaluated by 2^−ΔΔCt, where ΔΔCt is the (CtmiRNAsgene−CtRnu6/cel-miR-39) of the patient from which the average (CtmiRNAs gene−CtRnu6/cel-miR-39) of the internal control gene is subtracted.\n(§2) Peripheral blood mononuclear cells, human monocyte cell line U937 (ATCC CRL1593, hereinafter referred to as U937 cell) and THP-1 cells (ATCC TIB-202) isolated from the subject were respectively cultured in RPMI medium 1640 (Gibco, Thermo Fisher Scientific, USA) supplemented with 10% fetal bovine serum, 1× non-essential amino acids, 100 unit/ml penicillin and 100 unit/ml streptomycin in 5% carbon dioxide at 37° C.\nPeripheral blood mononuclear cells (5×10^5 cells) derived from the subjects were stimulated with different TLR ligands. Finally, the intracellular expression level of miR-134 was measured with the TaqMan MicroRNA test kit.\nFollowing the process as described in Example 8, the intracellular expressions of miR-134 and IL-18BP mRNA in the TLR3 ligand-stimulated peripheral blood mononuclear cells derived from patients with AOSD and healthy subjects were detected. The correlation between the IL-18BP and IL-18 expressions and the miR-134 expression was analyzed."}, "THP-1 cells": {"test_system": "THP-1 cells", "assay": "poly (I:C) stimulation of THP-1 cells, miR-134 expression", "format": "cell-based, human", "conditions": "24 hours after stimulation, FIG. 5B", "description": "as §1, §2\nFurther, the THP-1 cells were treated with the TLR3 ligand poly (I:C)."}}}
{"substance": "polyriboinosinic:polyribocytidylic acid [poly(I:C)]", "values": [{"measurement": "miR-134 expression level in the cells", "setting": "[1]; PBMC from patients with AOSD, TLR3 ligand poly(I:C) 50 μg/ml, FIG. 5A", "value": "3.81±0.09", "unit": "folds"}, {"measurement": "expression level of miR-134", "setting": "[1]; TLR3 ligand-stimulated PBMC from patients with AOSD, FIG. 10A", "value": "increased"}, {"measurement": "expression level of IL-18BP mRNA", "setting": "[1]; TLR3 ligand-stimulated PBMC from patients with AOSD, FIG. 10B", "value": "reduced"}, {"measurement": "expression of miR-134 (highest value)", "setting": "THP-1 cells", "value": "1.92±0.11", "unit": "folds"}]}
